Measurements taken from patent publication US11999727B2 (Tango Therapeutics, Inc., priority 2020, dated 2024).

Assays:
[1] = test system: HAP1 MTAP-deleted cell line; assay: SDMA in-cell western assay, HAP1 MTAP-deleted; format: cell-based; details: for IC50: Homo sapiens, HAP1, SDMA in-cell western, HAP1 MTAP-deleted; for MTAP intact/deleted ratio: SDMA in-cell western
In short: (§1)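 Compounds were tested in HAP1 cells differing only in MTAP status (endogenous expression versus null). Cellular SDMA levels were then measured by in-cell western, giving an IC50 in each background.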

PRMT5 [2] = molecular target: T1, PRMT5 (Homo sapiens, UniProt O14744); assay: PRMT5 biochemical IC50 assay with SAM as cofactor; details: PRMT5, SAM as cofactor; read-out: SAM IC50
T1 construct: purchased Viva (custom protein)
T1 sequence (O14744 whole entry): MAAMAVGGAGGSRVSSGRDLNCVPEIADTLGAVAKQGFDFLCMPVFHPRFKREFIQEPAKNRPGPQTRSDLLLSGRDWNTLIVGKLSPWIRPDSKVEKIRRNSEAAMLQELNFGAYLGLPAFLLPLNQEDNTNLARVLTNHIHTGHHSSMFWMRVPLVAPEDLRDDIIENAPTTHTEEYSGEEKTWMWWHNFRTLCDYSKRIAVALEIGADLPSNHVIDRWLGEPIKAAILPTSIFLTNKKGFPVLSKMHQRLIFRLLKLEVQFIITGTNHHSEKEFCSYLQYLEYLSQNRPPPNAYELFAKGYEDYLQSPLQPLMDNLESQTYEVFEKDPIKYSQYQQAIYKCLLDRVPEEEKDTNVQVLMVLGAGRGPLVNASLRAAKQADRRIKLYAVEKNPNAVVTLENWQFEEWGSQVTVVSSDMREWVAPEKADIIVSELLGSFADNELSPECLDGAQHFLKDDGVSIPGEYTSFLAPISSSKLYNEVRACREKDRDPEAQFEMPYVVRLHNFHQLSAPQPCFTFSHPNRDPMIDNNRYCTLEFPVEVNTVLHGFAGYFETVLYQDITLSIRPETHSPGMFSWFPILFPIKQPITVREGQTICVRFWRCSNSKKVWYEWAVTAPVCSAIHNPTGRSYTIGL
T1 sequence (Q9BQA1 whole entry partner): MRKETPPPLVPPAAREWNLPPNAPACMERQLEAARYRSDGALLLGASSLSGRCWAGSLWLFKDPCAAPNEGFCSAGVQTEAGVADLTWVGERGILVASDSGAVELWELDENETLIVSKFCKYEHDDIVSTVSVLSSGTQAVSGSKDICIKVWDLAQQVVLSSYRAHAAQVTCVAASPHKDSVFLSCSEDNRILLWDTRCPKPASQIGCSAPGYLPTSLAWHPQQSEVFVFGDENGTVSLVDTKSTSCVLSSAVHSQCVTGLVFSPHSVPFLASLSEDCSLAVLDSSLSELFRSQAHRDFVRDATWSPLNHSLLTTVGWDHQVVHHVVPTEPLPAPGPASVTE

PRMT5 [3] = molecular target: T1, PRMT5; assay: PRMT5 biochemical IC50 assay with no cofactor; details: PRMT5, no cofactor
Excerpt: Table 1 indicates IC50 values (μM) against PRMT5 for exemplary compounds in the presence of SAM as cofactor, with no cofactor, and with MTA as cofactor, respectively (columns 4-6). […] Ki values can be calculated from the IC50 values as described in the Examples section. As detailed in the Examples section, for the assay performed in the presence of SAM, IC50=Ki×1.5 (Ki=IC50/1.5).

[4] = test system: HAP1 MTAP-intact cell line; assay: SDMA in-cell western assay, HAP1 MTAP-intact; format: cell-based; details: Homo sapiens, HAP1, SDMA in-cell western, HAP1 MTAP-intact; read-out: MTAP HAP1 intact IC50
In short: as §1

PRMT5 [5] = molecular target: T1, PRMT5; assay: PRMT5 biochemical IC50 assay with MTA as cofactor; details: PRMT5, MTA as cofactor; read-out: MTA IC50
[6] = test system: HAP1 MTAP-deleted cell line; assay: Viability assay, MTAP-deleted cell line; format: cell-based; details: Homo sapiens, read-out: HAP1 MTAP deleted viability
Excerpt: Table 1 additionally indicates IC50 values in a viability assay for the MTAP-deleted cell line (column 10), indicating the effect of treatment with compound on cell survival.

[7] = read-out: HAP1 MTAP deleted IC50
[8] = IC50 ratio HAP1 MTAP-intact vs HAP1 MTAP-deleted
[9] = HAP1, viability assay, MTAP-deleted cell line
[10] = read-out: HAP 1 MTAP deleted IC50
[11] = IC50 ratio HAP1 MTAP-intact / HAP1 MTAP-deleted
[12] = read-out: No Cofactor/ rel IC50
[13] = HAP1, viability, HAP1 MTAP-deleted cell line

| Compound | IC50 [1, 7] | IC50 (PRMT5 [2]) | IC50 (PRMT5 [3]; read-out: No Cofactor/rel IC50) | IC50 [4] | IC50 (PRMT5 [5]) | IC50 [1, 10] | IC50 (PRMT5 [3]; [12]) | MTAP intact/deleted ratio [1, 8] | IC50 [6, 9] | MTAP intact/deleted ratio [1, 11] | IC50 [6, 13] |
| --- | --- | --- | --- | --- | --- | --- | --- | --- | --- | --- | --- |
| CCc1cc(NC(=O)C(=O)N2C[C@@H](C)CC[C@@H]2c2ccc3sc(C(C)(C)N(C)C)nc3c2)cnc1N [Compound 1237, N-(6-amino-5-ethylpyridin-3-yl)-2-((2R,5S)-2-(2-(2-(dimethylamino)propan-2-yl)benzo[d]thiazol-5-yl)-5-methylpiperidin-1-yl)-2-oxoacetamide] | < 100 nM | 50 to 500 nM | < 50 nM | < 100 nM | < 50 nM |  |  | A (an IC50 ratio greater than or equal to 10 fold) | < 1000 nM |  |  |
| CCc1cc(NC(=O)C(=O)N2C[C@@H](C)CC[C@@H]2c2ccc3sc(-c4ccccn4)nc3c2)cnc1N [Compound 1238, N-(6-amino-5-ethylpyridin-3-yl)-2-((2R,5S)-5-methyl-2-(2-(pyridin-2-yl)benzo[d]thiazol-5-yl)piperidin-1-yl)-2-oxoacetamide] | < 100 nM | 50 to 500 nM | 50 to 500 nM | 100 to 1000 nM | < 50 nM |  |  | A (an IC50 ratio greater than or equal to 10 fold) | < 1000 nM |  |  |
| CCc1cc(NC(=O)C(=O)N2C[C@@H](C)CC[C@@H]2c2ccc3sc(C4CCOC4)nc3c2)cnc1N (stereo partly drawn) [Compound 1242, N-(6-amino-5-ethylpyridin-3-yl)-2-((2R,5S)-5-methyl-2-(2-(tetrahydrofuran-3-yl)benzo[d]thiazol-5-yl)piperidin-1-yl)-2-oxoacetamide] |  | 50 to 500 nM |  | 100 to 1000 nM | < 50 nM | < 100 nM | < 50 nM |  |  | A (an IC50 ratio greater than or equal to 10 fold) | < 1000 nM |
| CCc1cc(NC(=O)C(=O)N2C[C@@H](C)CC[C@@H]2c2ccc3sc(N4CCN(C)CC4)nc3c2)cnc1N [Compound 1244, N-(6-amino-5-ethylpyridin-3-yl)-2-((2R,5S)-5-methyl-2-(2-(4-methylpiperazin-1-yl)benzo[d]thiazol-5-yl)piperidin-1-yl)-2-oxoacetamide] |  | 50 to 500 nM |  | < 100 nM | < 50 nM | < 100 nM | < 50 nM |  |  | A (an IC50 ratio greater than or equal to 10 fold) | < 1000 nM |
| CCc1cc(NC(=O)C(=O)N2C[C@@H](C)CC[C@@H]2c2ccc3sc([C@H]4COCCN4C)nc3c2)cnc1N [Compound 1245, N-(6-amino-5-ethylpyridin-3-yl)-2-((2R,5S)-5-methyl-2-(2-(4-methylmorpholin-3-yl)benzo[d]thiazol-5-yl)piperidin-1-yl)-2-oxoacetamide] |  | 50 to 500 nM |  | 100 to 1000 nM | < 50 nM | < 100 nM | < 50 nM |  |  | A (an IC50 ratio greater than or equal to 10 fold) | < 1000 nM |
| CCc1cc(NC(=O)C(=O)N2C[C@@H](C)CC[C@@H]2c2ccc3sc(C4CCN(CC)CC4)nc3c2)cnc1N [Compound 1252, N-(6-amino-5-ethylpyridin-3-yl)-2-((2R,53)-2-(2-(1-ethylpiperidin-4-yl)benzo[d]thiazol-5-yl)-5-methylpiperidin-1-yl)-2-oxoacetamide] |  | 50 to 500 nM |  | < 100 nM | < 50 nM | < 100 nM | < 50 nM |  |  | A (an IC50 ratio greater than or equal to 10 fold) | < 1000 nM |
| CCc1cc(NC(=O)C(=O)N2C[C@@H](C)CC[C@@H]2c2ccc3sc([C@@H]4CCN(C)C(=O)C4)nc3c2)cnc1N [Compound 1256, N-(6-amino-5-ethyl-3-pyridyl)-2-[(2R,5S)-5-methyl-2-[2-(1-methyl-2-oxo-4-piperidyl)-1,3-benzothiazol-5-yl]-1-piperidyl]-2-oxo-acetamide] |  | 50 to 500 nM |  | < 100 nM | < 50 nM | < 100 nM | < 50 nM |  |  | A (an IC50 ratio greater than or equal to 10 fold) | < 1000 nM |

The next lines start with results.

| IC50 [1, 7] | IC50 (PRMT5 [2]) | IC50 (PRMT5 [3]; read-out: No Cofactor/rel IC50) | IC50 [4] | IC50 (PRMT5 [5]) | IC50 [1, 10] | IC50 (PRMT5 [3]; [12]) | Compound | MTAP intact/deleted ratio [1, 8] | IC50 [6, 9] | MTAP intact/deleted ratio [1, 11] | IC50 [6, 13] |
| --- | --- | --- | --- | --- | --- | --- | --- | --- | --- | --- | --- |
| < 100 nM | 50 to 500 nM | < 50 nM | 100 to 1000 nM | < 50 nM |  |  | CCc1cc(NC(=O)C(=O)N2C[C@@H](C)CC[C@@H]2c2ccc(CCN(C)C)cc2)cnc1N [Compound 1228, N-(6-amino-5-ethylpyridin-3-yl)-2-((2R,5S)-2-(4-(2-(dimethylamino)ethyl)phenyl)-5-methylpiperidin-1-yl)-2-oxoacetamide] | A (an IC50 ratio greater than or equal to 10 fold) | < 1000 nM |  |  |
| < 100 nM | 50 to 500 nM | < 50 nM | 100 to 1000 nM | < 50 nM |  |  | CCc1cc(NC(=O)C(=O)N2C[C@@H](C)CC[C@@H]2c2ccc(N3CCC(CN(C)CC)CC3)cc2)cnc1N [Compound 1232, N-(6-Amino-5-ethylpyridin-3-yl)-2-[(2R,5S)-2-[4-(4-{[ethyl(methyl)amino]methyl}piperidin-1-yl)phenyl]-5-methylpiperidin-1-yl]-2-oxoacetamide] | A (an IC50 ratio greater than or equal to 10 fold) | < 1000 nM |  |  |
| < 100 nM | < 50 nM | < 50 nM | < 100 nM | < 50 nM |  |  | COc1ncc(NC(=O)C(=O)N2C[C@@H](C)CC[C@@H]2c2ccc3sc(C4CC5(C4)CN(C)C5)nc3c2)cc1C(N)=O [Compound 1236, 2-methoxy-5-(2-((2R,5S)-5-methyl-2-(2-(2-methyl-2-azaspiro[3.3]heptan-6-yl)benzo[d]thiazol-5-yl)piperidin-1-yl)-2-oxoacetamido)nicotinamide] | A (an IC50 ratio greater than or equal to 10 fold) | < 1000 nM |  |  |
|  | < 50 nM |  | < 100 nM | < 50 nM | < 100 nM | < 50 nM | CCc1cc(NC(=O)C(=O)N2C[C@@H](C)CC[C@@H]2c2ccc3sc(C4CCNCC4)nc3c2)cnc1N [Compound 1240, N-(6-amino-5-ethyl-3-pyridyl)-2-[(2R,5S)-5-methyl-2-[2-(4-piperidyl)-1,3-benzothiazol-5-yl]-1-piperidyl]-2-oxo-acetamide] |  |  | B (an IC50 ratio greater than or equal to 3 fold but lower than 10 fold) | < 1000 nM |
|  | < 50 nM |  | 100 to 1000 nM | < 50 nM | < 100 nM | < 50 nM | CCc1cc(NC(=O)C(=O)N2C[C@@H](C)CC[C@@H]2c2cc(Cl)cc(OCCN(C)C)c2)cnc1N [Compound 1247, N-(6-amino-5-ethylpyridin-3-yl)-2-((2R,5S)-2-(3-chloro-5-(2-(dimethylamino)ethoxy)phenyl)-5-methylpiperidin-1-yl)-2-oxoacetamide] |  |  | A (an IC50 ratio greater than or equal to 10 fold) | < 1000 nM |
|  | < 50 nM |  | 100 to 1000 nM | < 50 nM | < 100 nM | < 50 nM | CCc1cc(NC(=O)C(=O)N2C[C@@H](C)CC[C@@H]2c2ccc3sc(CCN4CCOCC4)nc3c2)cnc1N [Compound 1248, N-(6-amino-5-ethylpyridin-3-yl)-2-((2R,5S)-5-methyl-2-(2-(2-morpholinoethyl)benzo[d]thiazol-5-yl)piperidin-1-yl)-2-oxoacetamide] |  |  | A (an IC50 ratio greater than or equal to 10 fold) | < 1000 nM |
|  | < 50 nM |  | 100 to 1000 nM | < 50 nM | < 100 nM | < 50 nM | COc1ncc(NC(=O)C(=O)N2C[C@@H](C)CC[C@@H]2c2ccc3sc(C4CN(C)C4)nc3c2)cc1C(N)=O [Compound 1257] |  |  | A (an IC50 ratio greater than or equal to 10 fold) | < 1000 nM |
|  | < 50 nM |  | < 100 nM | < 50 nM | < 100 nM | < 50 nM | CCc1cc(NC(=O)C(=O)N2C[C@@H](C)CC[C@@H]2c2ccc3sc([C@H]4C[C@@H](C)N(C)[C@@H](C)C4)nc3c2)cnc1N [Compound 1261, N-(6-amino-5-ethylpyridin-3-yl)-2-((2R,5S)-5-methyl-2-(2-((2R,4r,6S)-1,2,6-trimethylpiperidin-4-yl)benzo[d]thiazol-5-yl)piperidin-1-yl)-2-oxoacetamide] |  |  | A (an IC50 ratio greater than or equal to 10 fold) | < 1000 nM |
